According to article PMC10994248 (The Oncologist, 2024):

Assay: Phase I safety and tolerability (TEAEs, DLTs, MTD, DRDE) in patients with advanced solid tumors
Assay type: in vivo, human
Conditions: for DLT: Hypertension / DLT: Palmar-plantar erythrodysesthesia syndrome / DLT: Skin and subcutaneous tissue disorders / DLT: Vascular disorders / Subjects who had a dose-limiting toxicity: dose-determining set
Protocol: This 2-part, open-label, phase I study was conducted at the MD Anderson Cancer Center in Texas, USA and the Cancer Hospital Chinese Academy of Medical Sciences in Beijing, China. […] This was followed by a dose-expansion phase, the primary objective of which was to confirm the safety and tolerability of tinengotinib at the DRDE. Secondary objectives were to characterize the pharmacokinetics and preliminary efficacy of tinengotinib.
Dose escalation was guided by an adaptive Bayesian logistic regression model using the Escalation with Overdose Control principle.[6],[7] Study data (including DLTs, grade 2 adverse events during cycle 1, and pharmacokinetic data) were reviewed by the sponsor and trial investigators at each dose level and used to guide dose-escalation decisions. MTD was based on the Bayesian model, but with consideration given to available safety and tolerability data. DRDE was based on an evaluation of all available data (safety, clinical activity, and pharmacokinetics).
After determination of the DRDE, the dose-expansion phase was opened to further characterize safety and pharmacokinetics, and to assess preliminary efficacy.
Routine safety assessments of adverse events, laboratory tests (hematology, coagulation, biochemistry, and urinalysis), vital signs, and 12-lead electrocardiograms were performed. Adverse events were graded according to the National Cancer Institute Common Terminology Criteria for Adverse Events (CTCAE), version 5.0.

Substance: tinengotinib
- DLT: Hypertension (1 mg (n=1)): 0 No. (%)
- DLT: Palmar-plantar erythrodysesthesia syndrome (1 mg (n=1)): 0 No. (%)
- DLT: Skin and subcutaneous tissue disorders (1 mg (n=1)): 0 No. (%)
- DLT: Vascular disorders (1 mg (n=1)): 0 No. (%)
- Subjects who had a dose-limiting toxicity (1 mg (n=1)): 0 No. (%)
- DLT: Hypertension (3 mg (n=1)): 0 No. (%)
- DLT: Palmar-plantar erythrodysesthesia syndrome (3 mg (n=1)): 0 No. (%)
- DLT: Skin and subcutaneous tissue disorders (3 mg (n=1)): 0 No. (%)
- DLT: Vascular disorders (3 mg (n=1)): 0 No. (%)
- Subjects who had a dose-limiting toxicity (3 mg (n=1)): 0 No. (%)
- DLT: Hypertension (5 mg (n=4)): 0 No. (%)
- DLT: Palmar-plantar erythrodysesthesia syndrome (5 mg (n=4)): 0 No. (%)
- DLT: Skin and subcutaneous tissue disorders (5 mg (n=4)): 0 No. (%)
- DLT: Vascular disorders (5 mg (n=4)): 0 No. (%)
- Subjects who had a dose-limiting toxicity (5 mg (n=4)): 0 No. (%)
- DLT: Hypertension (8 mg (n=9)): 0 No. (%)
- DLT: Palmar-plantar erythrodysesthesia syndrome (8 mg (n=9)): 1 (11.1) No. (%)
- DLT: Skin and subcutaneous tissue disorders (8 mg (n=9)): 1 (11.1) No. (%)
- DLT: Vascular disorders (8 mg (n=9)): 0 No. (%)
- Subjects who had a dose-limiting toxicity (8 mg (n=9)): 1 (11.1) No. (%)
- DLT: Hypertension (10 mg (n=3)): 0 No. (%)
- DLT: Palmar-plantar erythrodysesthesia syndrome (10 mg (n=3)): 0 No. (%)
- DLT: Skin and subcutaneous tissue disorders (10 mg (n=3)): 0 No. (%)
- DLT: Vascular disorders (10 mg (n=3)): 0 No. (%)
- Subjects who had a dose-limiting toxicity (10 mg (n=3)): 0 No. (%)
- DLT: Hypertension (12 mg (n=9)): 0 No. (%)
- DLT: Palmar-plantar erythrodysesthesia syndrome (12 mg (n=9)): 0 No. (%)
- DLT: Skin and subcutaneous tissue disorders (12 mg (n=9)): 0 No. (%)
- DLT: Vascular disorders (12 mg (n=9)): 0 No. (%)
- Subjects who had a dose-limiting toxicity (12 mg (n=9)): 0 No. (%)
- DLTs during the dose-expansion phase (12 mg dose): no other DLTs
- DLT: Hypertension (15 mg (n=5)): 2 (40.0) No. (%)
- DLT: Palmar-plantar erythrodysesthesia syndrome (15 mg (n=5)): 0 No. (%)
- DLT: Skin and subcutaneous tissue disorders (15 mg (n=5)): 0 No. (%)
- DLT: Vascular disorders (15 mg (n=5)): 2 (40.0) No. (%)
- Subjects who had a dose-limiting toxicity (15 mg (n=5)): 2 (40.0) No. (%)
- Dose modifications (dose adjustment or temporary interruption) because of drug-related TEAEs (48 patients): 52.1%
- Dose modifications because of drug-related hypertension (48 patients): 22.9%
- Drug-related grade 3 diarrhea (48 patients): 2.1%
- Drug-related grade 3 hypertension (48 patients): 27.1%
- Drug-related grade 3 nausea (48 patients): 2.1%
- Drug-related grade 3 palmar-plantar erythrodysesthesia syndrome (48 patients): 2.1%
- Drug-related grade 3 stomatitis (48 patients): 4.2%
- Drug-related grade 4 or 5 TEAEs (48 patients): No drug-related grade 4 or 5 TEAEs were reported
- Patients with drug-related grade 3 TEAEs (48 patients): 43.8%
- Patients with drug-related serious adverse events (48 patients): 14.6%
- Patients with study drug-related TEAEs (48 patients, all doses): 85.4%
- Drug-related TEAE diarrhea (48 patients, any grade): 33.3%
- Drug-related TEAE hypertension (48 patients, any grade): 50.0%
- Drug-related TEAE nausea (48 patients, any grade): 22.9%
- Drug-related TEAE palmar-plantar erythrodysesthesia syndrome (48 patients, any grade): 29.2%
- Drug-related TEAE stomatitis (48 patients, any grade): 29.2%
- Drug-related TEAE vomiting (48 patients, any grade): 20.8%
- Maximum tolerated dose (MTD) (Bayesian model, doses 1-15 mg once daily): not reached
- DLT: Hypertension (Total (n=32)): 2 (6.3) No. (%)
- DLT: Palmar-plantar erythrodysesthesia syndrome (Total (n=32)): 1 (3.1) No. (%)
- DLT: Skin and subcutaneous tissue disorders (Total (n=32)): 1 (3.1) No. (%)
- DLT: Vascular disorders (Total (n=32)): 2 (6.3) No. (%)
- Subjects who had a dose-limiting toxicity (Total (n=32)): 3 (9.4) No. (%)
- Risk of grade ≥3 hypertension predicted by exposure-response model (all doses): < 25%
- Patients with AE (combined 12 mg (n=20)): 20 (100) n (%)
- Patients with TEAE (combined 12 mg (n=20)): 20 (100) n (%)
- Patients with TEAE leading to death (combined 12 mg (n=20)): 0 n (%)
- Patients with TEAE leading to dose adjustment/temporary interruption (combined 12 mg (n=20)): 15 (75.0) n (%)
- Patients with TEAE leading to study drug permanent discontinuation (combined 12 mg (n=20)): 3 (15.0) n (%)
- Patients with grade ≥3 TEAE (combined 12 mg (n=20)): 14 (70.0) n (%)
- Patients with study drug-related TEAE (combined 12 mg (n=20)): 19 (95.0) n (%)
- Patients with study drug-related TEAE leading to dose adjustment/temporary interruption (combined 12 mg (n=20)): 13 (65.0) n (%)
- Patients with study drug-related TEAE leading to study drug permanent discontinuation (combined 12 mg (n=20)): 1 (5.0) n (%)
- Patients with study drug-related grade ≥3 TEAE (combined 12 mg (n=20)): 11 (55.0) n (%)
- Patients with study drug-related treatment-emergent SAE (combined 12 mg (n=20)): 3 (15.0) n (%)
- Patients with treatment-emergent SAE (combined 12 mg (n=20)): 9 (45.0) n (%)
- Patients with AE (dose escalation 1 mg (n=1)): 1 (100) n (%)
- Patients with TEAE (dose escalation 1 mg (n=1)): 1 (100) n (%)
- Patients with TEAE leading to death (dose escalation 1 mg (n=1)): 0 n (%)
- Patients with TEAE leading to dose adjustment/temporary interruption (dose escalation 1 mg (n=1)): 0 n (%)
- Patients with TEAE leading to study drug permanent discontinuation (dose escalation 1 mg (n=1)): 0 n (%)
- Patients with grade ≥3 TEAE (dose escalation 1 mg (n=1)): 0 n (%)
- Patients with study drug-related TEAE (dose escalation 1 mg (n=1)): 0 n (%)
- Patients with study drug-related TEAE leading to dose adjustment/temporary interruption (dose escalation 1 mg (n=1)): 0 n (%)
- Patients with study drug-related TEAE leading to study drug permanent discontinuation (dose escalation 1 mg (n=1)): 0 n (%)
- Patients with study drug-related grade ≥3 TEAE (dose escalation 1 mg (n=1)): 0 n (%)
- Patients with study drug-related treatment-emergent SAE (dose escalation 1 mg (n=1)): 0 n (%)
- Patients with treatment-emergent SAE (dose escalation 1 mg (n=1)): 0 n (%)
- Patients with AE (dose escalation 3 mg (n=1)): 1 (100) n (%)
- Patients with TEAE (dose escalation 3 mg (n=1)): 1 (100) n (%)
- Patients with TEAE leading to death (dose escalation 3 mg (n=1)): 0 n (%)
- Patients with TEAE leading to dose adjustment/temporary interruption (dose escalation 3 mg (n=1)): 0 n (%)
- Patients with TEAE leading to study drug permanent discontinuation (dose escalation 3 mg (n=1)): 0 n (%)
- Patients with grade ≥3 TEAE (dose escalation 3 mg (n=1)): 0 n (%)
- Patients with study drug-related TEAE (dose escalation 3 mg (n=1)): 0 n (%)
- Patients with study drug-related TEAE leading to dose adjustment/temporary interruption (dose escalation 3 mg (n=1)): 0 n (%)
- Patients with study drug-related TEAE leading to study drug permanent discontinuation (dose escalation 3 mg (n=1)): 0 n (%)
- Patients with study drug-related grade ≥3 TEAE (dose escalation 3 mg (n=1)): 0 n (%)
- Patients with study drug-related treatment-emergent SAE (dose escalation 3 mg (n=1)): 0 n (%)
- Patients with treatment-emergent SAE (dose escalation 3 mg (n=1)): 0 n (%)
- Patients with AE (dose escalation 5 mg (n=4)): 4 (100) n (%)
- Patients with TEAE (dose escalation 5 mg (n=4)): 4 (100) n (%)
- Patients with TEAE leading to death (dose escalation 5 mg (n=4)): 0 n (%)
- Patients with TEAE leading to dose adjustment/temporary interruption (dose escalation 5 mg (n=4)): 2 (50.0) n (%)
- Patients with TEAE leading to study drug permanent discontinuation (dose escalation 5 mg (n=4)): 0 n (%)
- Patients with grade ≥3 TEAE (dose escalation 5 mg (n=4)): 1 (25.0) n (%)
- Patients with study drug-related TEAE (dose escalation 5 mg (n=4)): 3 (75.0) n (%)
- Patients with study drug-related TEAE leading to dose adjustment/temporary interruption (dose escalation 5 mg (n=4)): 1 (25.0) n (%)
- Patients with study drug-related TEAE leading to study drug permanent discontinuation (dose escalation 5 mg (n=4)): 0 n (%)
- Patients with study drug-related grade ≥3 TEAE (dose escalation 5 mg (n=4)): 1 (25.0) n (%)
- Patients with study drug-related treatment-emergent SAE (dose escalation 5 mg (n=4)): 0 n (%)
- Patients with treatment-emergent SAE (dose escalation 5 mg (n=4)): 0 n (%)
- Patients with AE (dose escalation 8 mg (n=10)): 9 (90.0) n (%)
- Patients with TEAE (dose escalation 8 mg (n=10)): 9 (90.0) n (%)
- Patients with TEAE leading to death (dose escalation 8 mg (n=10)): 0 n (%)
- Patients with TEAE leading to dose adjustment/temporary interruption (dose escalation 8 mg (n=10)): 5 (50.0) n (%)
- Patients with TEAE leading to study drug permanent discontinuation (dose escalation 8 mg (n=10)): 2 (20.0) n (%)
- Patients with grade ≥3 TEAE (dose escalation 8 mg (n=10)): 6 (60.0) n (%)
- Patients with study drug-related TEAE (dose escalation 8 mg (n=10)): 8 (80.0) n (%)
- Patients with study drug-related TEAE leading to dose adjustment/temporary interruption (dose escalation 8 mg (n=10)): 5 (50.0) n (%)
- Patients with study drug-related TEAE leading to study drug permanent discontinuation (dose escalation 8 mg (n=10)): 1 (10.0) n (%)
- Patients with study drug-related grade ≥3 TEAE (dose escalation 8 mg (n=10)): 4 (40.0) n (%)
- Patients with study drug-related treatment-emergent SAE (dose escalation 8 mg (n=10)): 3 (30.0) n (%)
- Patients with treatment-emergent SAE (dose escalation 8 mg (n=10)): 5 (50.0) n (%)
- Patients with AE (dose escalation 10 mg (n=6)): 6 (100) n (%)
- Patients with TEAE (dose escalation 10 mg (n=6)): 6 (100) n (%)
- Patients with TEAE leading to death (dose escalation 10 mg (n=6)): 0 n (%)
- Patients with TEAE leading to dose adjustment/temporary interruption (dose escalation 10 mg (n=6)): 5 (83.3) n (%)
- Patients with TEAE leading to study drug permanent discontinuation (dose escalation 10 mg (n=6)): 4 (66.7) n (%)
- Patients with grade ≥3 TEAE (dose escalation 10 mg (n=6)): 5 (83.3) n (%)
- Patients with study drug-related TEAE (dose escalation 10 mg (n=6)): 6 (100) n (%)
- Patients with study drug-related TEAE leading to dose adjustment/temporary interruption (dose escalation 10 mg (n=6)): 3 (50.0) n (%)
- Patients with study drug-related TEAE leading to study drug permanent discontinuation (dose escalation 10 mg (n=6)): 4 (66.7) n (%)
- Patients with study drug-related grade ≥3 TEAE (dose escalation 10 mg (n=6)): 2 (33.3) n (%)
- Patients with study drug-related treatment-emergent SAE (dose escalation 10 mg (n=6)): 1 (16.7) n (%)
- Patients with treatment-emergent SAE (dose escalation 10 mg (n=6)): 4 (66.7) n (%)
- Patients with AE (dose escalation 12 mg (n=12)): 12 (100) n (%)
- Patients with TEAE (dose escalation 12 mg (n=12)): 12 (100) n (%)
- Patients with TEAE leading to death (dose escalation 12 mg (n=12)): 0 n (%)
- Patients with TEAE leading to dose adjustment/temporary interruption (dose escalation 12 mg (n=12)): 8 (66.7) n (%)
- Patients with TEAE leading to study drug permanent discontinuation (dose escalation 12 mg (n=12)): 3 (25.0) n (%)
- Patients with grade ≥3 TEAE (dose escalation 12 mg (n=12)): 9 (75.0) n (%)
- Patients with study drug-related TEAE (dose escalation 12 mg (n=12)): 11 (91.7) n (%)
- Patients with study drug-related TEAE leading to dose adjustment/temporary interruption (dose escalation 12 mg (n=12)): 6 (50.0) n (%)
